This is an account of results in ChEMBL document CHEMBL4507257, “Data for DCP probe ABT-100” (2021).

Data set [1] has as its target Serine/threonine-protein kinase BRSK2 (Homo sapiens, UniProt Q8IWQ3). The data set can be described thus: Inhibition of BRSK2 at compound concentration of 10.0 uM using the ScanMax (DiscoverX).
Data set [2] deals with 5-hydroxytryptamine receptor 6 (Homo sapiens) (UniProt P50406). The data set can be described thus: 5-HT6 (h) Ligand binding assay. As to conditions: Compound concentration 10.0 uM; call rule not given here.
Data set [3] deals with Kappa-type opioid receptor (Homo sapiens) (UniProt P41145). Briefly: Kappa (h) Ligand binding assay. As to conditions: Compound concentration 10.0 uM.
Data set [4] deals with voltage-dependent potassium channel (Homo sapiens, UniProt O43525+O43526+O95259+P16389+P17658+P22001+P22459+P22460+P48547+P51787+P56696+Q03721+Q09470+Q12809+Q14003+Q14721+Q16322+Q6PIU1+Q8NCM2+Q8TAE7+Q8TDN1+Q8TDN2+Q92953+Q96KK3+Q96L42+Q96PR1+Q96RP8+Q9BQ31+Q9H252+Q9H3M0+Q9NR82+Q9NS40+Q9NSA2+Q9NZV8+Q9UIX4+Q9UJ96+Q9UK17+Q9ULD8+Q9ULS6+Q9UQ05). Briefly: K+ channel (Volt-dependent) Ligand binding assay. In kind it is protein assay. The following applies: compound concentration 10 uM.

Data set [5] has as its target Adenosine receptor A1 (Homo sapiens) (UniProt P30542). Briefly: A1 (h) Ligand binding assay. As to conditions: Compound concentration 10.0 uM.
Data set [6] deals with Calcium-activated potassium channel (Homo sapiens) (UniProt Q92952+Q9UGI6+Q12791+O15554+Q9H2S1+A8MYU2). The data set can be described thus: K+ channel (Ca2+ - dependent) Ligand binding assay. It is filed as protein assay. The following applies: Compound concentration 10.0 uM.
Data set [7] concerns the target Serine/threonine-protein kinase Nek7 (Homo sapiens, UniProt Q8TDX7). The data set can be described thus: Inhibition of NEK7 at compound concentration of 10.0 uM using the ScanMax (DiscoverX).
Data set [8] deals with sodium channel (site 2) (Homo sapiens, UniProt P35498+P35499+Q01118+Q14524+Q15858+Q99250+Q9NY46+Q9UI33+Q9UQD0+Q9Y5Y9). The data set can be described thus: Na+ channel (site 2) Ligand binding assay. In kind it is protein assay.
For data set [9], the target named is Muscarinic acetylcholine receptor M2 (Homo sapiens) (UniProt P08172). Briefly: M2 (h) Ligand binding assay. As to conditions: Compound concentration 10.0 uM.
Data set [10] deals with Vasopressin V1a receptor (Homo sapiens) (UniProt P37288). Briefly: V1a (h) Ligand binding assay. The following applies: Compound concentration 10.0 uM.
The target in data set [11] is T1, Muscarinic acetylcholine receptor M5 (Homo sapiens) (UniProt P08912).
T1 sequence (whole entry): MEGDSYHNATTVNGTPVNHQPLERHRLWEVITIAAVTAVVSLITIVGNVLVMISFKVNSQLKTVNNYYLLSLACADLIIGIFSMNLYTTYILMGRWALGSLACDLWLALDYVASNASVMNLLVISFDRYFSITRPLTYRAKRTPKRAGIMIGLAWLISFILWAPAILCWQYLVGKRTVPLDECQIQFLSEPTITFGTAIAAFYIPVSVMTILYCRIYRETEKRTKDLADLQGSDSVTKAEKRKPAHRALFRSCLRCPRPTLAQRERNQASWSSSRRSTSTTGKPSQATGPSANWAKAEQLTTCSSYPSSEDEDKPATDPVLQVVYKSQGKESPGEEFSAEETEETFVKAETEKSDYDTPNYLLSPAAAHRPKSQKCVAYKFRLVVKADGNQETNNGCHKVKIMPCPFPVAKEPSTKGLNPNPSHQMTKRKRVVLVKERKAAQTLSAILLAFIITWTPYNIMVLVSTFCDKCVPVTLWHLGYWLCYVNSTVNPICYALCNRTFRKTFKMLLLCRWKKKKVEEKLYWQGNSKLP
Briefly: M5 (h) Ligand binding assay. The following applies: Compound concentration 10.0 uM.

Data set [12] concerns the target Adrenergic receptor alpha-1 (Homo sapiens) (UniProt P35348+P25100+P35368). The data set can be described thus: alpha1 (non-selective) Ligand binding assay. The following applies: Compound concentration 10.0 uM. In kind it is protein assay.
The target in data set [13] is Alpha-1D adrenergic receptor (Homo sapiens) (UniProt P25100). As to conditions: Compound concentration 10.0 uM.
Data set [14] concerns the target L-type calcium channel (verapamil site) (Homo sapiens, UniProt O60840+Q01668+Q13698+Q13936). Briefly: Ca2+ channel (L verapamil site) Ligand binding assay. It is filed as protein assay.
For data set [15], the target named is Tumor necrosis factor (Homo sapiens) (UniProt P01375). Briefly: TNF-alpha (h) Ligand binding assay. As to conditions: Compound concentration 10.0 uM.
The target of data set [16] is Ephrin type-A receptor 1 (Homo sapiens, UniProt P21709). The data set can be described thus: Inhibition of EPHA1 at compound concentration of 10.0 uM using the ScanMax (DiscoverX).
Data set [17] deals with Cholecystokinin receptor type A (Homo sapiens) (UniProt P32238). Briefly: CCKA (h) Ligand binding assay. The following applies: Compound concentration 10.0 uM.
Data set [18] in a line: Cl- ionophore Ligand binding assay.
Data set [19] has as its target P2X receptor (Rattus norvegicus) (UniProt P51579+P49653+P51578+Q64663+P47824+P51577+P49654). The data set can be described thus: P2X Ligand binding assay. It is filed as protein assay. The following applies: Compound concentration 10.0 uM.
Data set [20] has as its target Histamine H2 receptor (Homo sapiens) (UniProt P25021). The data set can be described thus: H2 Ligand binding assay. The following applies: Compound concentration 10.0 uM.
In data set [21] the target is Cannabinoid receptor 2 (Homo sapiens) (UniProt P34972). The data set can be described thus: CB2 (h) (peripheral) Ligand binding assay. As to conditions: Compound concentration 10.0 uM.
The target in data set [22] is Muscarinic acetylcholine receptor M2 (Homo sapiens) (UniProt P08172). The following applies: Compound concentration 10.0 uM.
Data set [23] addresses Endothelin receptor type B (Homo sapiens) (UniProt P24530). Briefly: ETB (h) Ligand binding assay. The following applies: Compound concentration 10.0 uM.
The target in data set [24] is Sodium-dependent dopamine transporter (Homo sapiens) (UniProt Q01959). The data set can be described thus: DA uptake (h) Ligand binding assay.
Data set [25] addresses B2 bradykinin receptor (Homo sapiens) (UniProt P30411). Briefly: B2 (h) Ligand binding assay. As to conditions: Compound concentration 10.0 uM.
The test system of data set [26] is Glutamate receptor ionotropic NMDA, PCP site (Homo sapiens). The data set can be described thus: PCP Ligand binding assay.
The target of data set [27] is Neurotensin receptor type 1 (Homo sapiens) (UniProt P30989). The data set can be described thus: NT1 (h) Ligand binding assay. As to conditions: Compound concentration 10.0 uM.
The target of data set [28] is Mu-type opioid receptor (Homo sapiens) (UniProt P35372). The data set can be described thus: Mu (h) Ligand binding assay. The following applies: Compound concentration 10.0 uM.
Data set [29] concerns the target C-C chemokine receptor type 1 (Homo sapiens) (UniProt P32246). Briefly: CCR1 (h) Ligand binding assay. As to conditions: Compound concentration 10.0 uM.
Data set [30] deals with Neuromedin-K receptor (Homo sapiens) (UniProt P29371). Briefly: NK3 (h) Ligand binding assay. The following applies: Compound concentration 10.0 uM.
The target in data set [31] is Homeodomain-interacting protein kinase 2 (Homo sapiens, UniProt Q9H2X6). The data set can be described thus: Inhibition of HIPK2 at compound concentration of 10.0 uM using the ScanMax (DiscoverX).
The target in data set [32] is D(2) dopamine receptor (Homo sapiens) (UniProt P14416). The following applies: Compound concentration 10.0 uM.

Chain of Sodium-dependent dopamine transporter (Homo sapiens) (Q01959 whole entry): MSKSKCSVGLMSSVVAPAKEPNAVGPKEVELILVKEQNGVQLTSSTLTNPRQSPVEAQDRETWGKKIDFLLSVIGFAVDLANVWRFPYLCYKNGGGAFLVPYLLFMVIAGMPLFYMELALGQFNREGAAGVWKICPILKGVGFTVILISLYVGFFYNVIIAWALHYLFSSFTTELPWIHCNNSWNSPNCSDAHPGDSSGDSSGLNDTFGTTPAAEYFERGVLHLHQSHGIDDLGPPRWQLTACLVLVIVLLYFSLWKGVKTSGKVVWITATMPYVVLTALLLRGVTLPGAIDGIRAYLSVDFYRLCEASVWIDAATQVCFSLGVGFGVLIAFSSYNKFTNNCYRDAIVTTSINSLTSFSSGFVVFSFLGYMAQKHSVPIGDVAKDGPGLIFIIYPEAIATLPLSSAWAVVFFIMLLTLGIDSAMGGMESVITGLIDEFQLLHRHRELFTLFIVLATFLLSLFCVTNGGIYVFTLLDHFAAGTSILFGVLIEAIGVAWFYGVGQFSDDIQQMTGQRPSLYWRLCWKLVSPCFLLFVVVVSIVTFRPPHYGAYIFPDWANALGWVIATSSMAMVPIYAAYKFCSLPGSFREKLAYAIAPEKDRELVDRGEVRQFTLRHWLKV
Chain of Muscarinic acetylcholine receptor M2 (Homo sapiens) (P08172 whole entry): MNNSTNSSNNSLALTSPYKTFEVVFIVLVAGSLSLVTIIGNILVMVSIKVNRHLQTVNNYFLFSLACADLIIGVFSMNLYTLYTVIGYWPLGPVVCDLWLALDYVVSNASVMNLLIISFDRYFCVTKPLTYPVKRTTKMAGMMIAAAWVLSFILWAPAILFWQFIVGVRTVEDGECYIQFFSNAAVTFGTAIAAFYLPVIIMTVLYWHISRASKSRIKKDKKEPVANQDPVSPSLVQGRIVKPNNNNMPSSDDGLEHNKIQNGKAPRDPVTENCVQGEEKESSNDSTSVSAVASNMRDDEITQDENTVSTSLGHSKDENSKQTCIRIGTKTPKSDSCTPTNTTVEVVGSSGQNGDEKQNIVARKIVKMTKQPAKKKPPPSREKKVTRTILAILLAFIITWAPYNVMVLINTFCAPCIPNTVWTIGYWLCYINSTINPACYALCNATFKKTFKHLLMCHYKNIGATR
Chain of Serine/threonine-protein kinase Nek7 (Q8TDX7 whole entry): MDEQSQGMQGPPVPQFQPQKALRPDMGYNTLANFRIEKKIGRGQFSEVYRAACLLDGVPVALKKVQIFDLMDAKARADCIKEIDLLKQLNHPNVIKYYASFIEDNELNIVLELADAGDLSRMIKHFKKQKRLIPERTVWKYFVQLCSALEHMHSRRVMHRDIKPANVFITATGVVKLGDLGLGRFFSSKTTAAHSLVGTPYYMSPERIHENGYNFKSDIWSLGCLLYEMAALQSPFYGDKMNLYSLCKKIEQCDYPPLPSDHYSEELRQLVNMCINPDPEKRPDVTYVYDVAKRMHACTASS
Chain of Tumor necrosis factor (Homo sapiens) (P01375 whole entry): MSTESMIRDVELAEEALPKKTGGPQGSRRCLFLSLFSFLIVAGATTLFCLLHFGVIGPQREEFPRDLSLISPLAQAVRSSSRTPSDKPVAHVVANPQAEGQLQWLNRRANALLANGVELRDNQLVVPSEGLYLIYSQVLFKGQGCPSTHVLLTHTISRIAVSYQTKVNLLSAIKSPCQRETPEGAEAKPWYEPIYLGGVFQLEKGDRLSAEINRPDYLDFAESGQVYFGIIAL
Chain of Histamine H2 receptor (Homo sapiens) (P25021 whole entry): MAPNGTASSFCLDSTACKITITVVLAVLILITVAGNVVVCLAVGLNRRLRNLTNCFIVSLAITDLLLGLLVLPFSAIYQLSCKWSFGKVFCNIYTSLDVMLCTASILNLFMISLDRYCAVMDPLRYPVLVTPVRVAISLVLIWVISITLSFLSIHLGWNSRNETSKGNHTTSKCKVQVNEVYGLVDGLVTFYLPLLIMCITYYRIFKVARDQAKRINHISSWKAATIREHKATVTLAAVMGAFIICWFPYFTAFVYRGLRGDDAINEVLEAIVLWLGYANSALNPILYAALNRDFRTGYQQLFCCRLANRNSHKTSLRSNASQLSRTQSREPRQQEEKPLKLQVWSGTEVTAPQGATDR
Chain of Homeodomain-interacting protein kinase 2 (Q9H2X6 whole entry): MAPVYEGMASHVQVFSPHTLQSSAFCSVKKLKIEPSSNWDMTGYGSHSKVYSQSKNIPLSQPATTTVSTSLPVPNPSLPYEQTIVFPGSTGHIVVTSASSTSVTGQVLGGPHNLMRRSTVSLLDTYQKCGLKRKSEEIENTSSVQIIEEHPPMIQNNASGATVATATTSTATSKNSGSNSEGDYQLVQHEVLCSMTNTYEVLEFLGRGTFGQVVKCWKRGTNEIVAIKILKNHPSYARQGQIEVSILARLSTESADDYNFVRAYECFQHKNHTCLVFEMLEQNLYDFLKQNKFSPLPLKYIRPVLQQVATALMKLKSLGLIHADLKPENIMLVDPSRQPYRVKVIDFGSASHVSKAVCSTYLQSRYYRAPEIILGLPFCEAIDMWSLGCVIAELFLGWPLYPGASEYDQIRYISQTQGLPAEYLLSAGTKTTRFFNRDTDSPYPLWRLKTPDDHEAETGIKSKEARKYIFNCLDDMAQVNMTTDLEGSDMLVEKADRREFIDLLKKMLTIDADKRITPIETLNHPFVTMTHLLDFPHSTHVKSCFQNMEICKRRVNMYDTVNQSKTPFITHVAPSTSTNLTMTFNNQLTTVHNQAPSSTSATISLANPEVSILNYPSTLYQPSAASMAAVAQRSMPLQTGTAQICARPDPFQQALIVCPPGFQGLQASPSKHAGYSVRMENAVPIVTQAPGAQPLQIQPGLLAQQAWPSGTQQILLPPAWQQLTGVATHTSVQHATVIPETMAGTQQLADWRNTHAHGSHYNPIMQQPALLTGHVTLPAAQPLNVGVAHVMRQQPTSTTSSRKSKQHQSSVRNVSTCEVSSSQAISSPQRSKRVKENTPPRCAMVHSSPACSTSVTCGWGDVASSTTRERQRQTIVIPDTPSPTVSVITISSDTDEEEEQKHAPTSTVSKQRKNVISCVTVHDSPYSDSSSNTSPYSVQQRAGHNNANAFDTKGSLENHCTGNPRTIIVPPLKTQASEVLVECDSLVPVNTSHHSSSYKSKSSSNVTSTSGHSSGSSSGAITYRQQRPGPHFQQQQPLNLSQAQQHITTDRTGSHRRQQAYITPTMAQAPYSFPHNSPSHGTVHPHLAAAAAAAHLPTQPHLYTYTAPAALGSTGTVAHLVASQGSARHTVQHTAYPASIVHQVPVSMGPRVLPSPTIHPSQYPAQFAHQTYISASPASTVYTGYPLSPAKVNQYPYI
Chain of Neurotensin receptor type 1 (Homo sapiens) (P30989 whole entry): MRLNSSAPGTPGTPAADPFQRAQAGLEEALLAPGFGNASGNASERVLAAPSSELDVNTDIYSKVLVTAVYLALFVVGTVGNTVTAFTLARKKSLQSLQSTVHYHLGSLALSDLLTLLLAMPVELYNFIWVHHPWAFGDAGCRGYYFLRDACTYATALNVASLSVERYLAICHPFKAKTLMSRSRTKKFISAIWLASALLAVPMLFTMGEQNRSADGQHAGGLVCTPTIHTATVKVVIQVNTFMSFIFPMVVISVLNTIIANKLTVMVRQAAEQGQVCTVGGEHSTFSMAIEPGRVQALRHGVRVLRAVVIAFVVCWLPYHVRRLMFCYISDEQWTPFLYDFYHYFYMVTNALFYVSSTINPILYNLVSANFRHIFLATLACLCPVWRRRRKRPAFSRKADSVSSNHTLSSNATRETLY
Chain of Cannabinoid receptor 2 (Homo sapiens) (P34972 whole entry): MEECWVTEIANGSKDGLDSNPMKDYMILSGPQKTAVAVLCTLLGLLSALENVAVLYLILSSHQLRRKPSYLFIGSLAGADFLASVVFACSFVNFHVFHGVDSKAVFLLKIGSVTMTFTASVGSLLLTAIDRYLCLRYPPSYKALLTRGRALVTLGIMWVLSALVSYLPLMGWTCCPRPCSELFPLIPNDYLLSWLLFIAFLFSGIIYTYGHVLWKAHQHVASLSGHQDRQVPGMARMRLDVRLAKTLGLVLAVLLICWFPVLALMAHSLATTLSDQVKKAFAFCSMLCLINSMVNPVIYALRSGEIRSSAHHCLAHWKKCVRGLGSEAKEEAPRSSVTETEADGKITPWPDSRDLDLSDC
Chain of Kappa-type opioid receptor (Homo sapiens) (P41145 whole entry): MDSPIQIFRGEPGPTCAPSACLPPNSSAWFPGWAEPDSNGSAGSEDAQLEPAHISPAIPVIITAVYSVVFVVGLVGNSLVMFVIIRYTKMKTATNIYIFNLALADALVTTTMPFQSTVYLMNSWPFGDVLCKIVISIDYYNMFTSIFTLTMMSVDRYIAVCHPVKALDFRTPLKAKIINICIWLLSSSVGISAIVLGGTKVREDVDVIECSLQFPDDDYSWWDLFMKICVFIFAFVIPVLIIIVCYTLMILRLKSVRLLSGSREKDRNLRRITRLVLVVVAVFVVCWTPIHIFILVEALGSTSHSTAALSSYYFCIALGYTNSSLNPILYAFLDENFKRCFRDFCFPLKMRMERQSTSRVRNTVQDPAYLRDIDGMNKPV
Chain of Adenosine receptor A1 (Homo sapiens) (P30542 whole entry): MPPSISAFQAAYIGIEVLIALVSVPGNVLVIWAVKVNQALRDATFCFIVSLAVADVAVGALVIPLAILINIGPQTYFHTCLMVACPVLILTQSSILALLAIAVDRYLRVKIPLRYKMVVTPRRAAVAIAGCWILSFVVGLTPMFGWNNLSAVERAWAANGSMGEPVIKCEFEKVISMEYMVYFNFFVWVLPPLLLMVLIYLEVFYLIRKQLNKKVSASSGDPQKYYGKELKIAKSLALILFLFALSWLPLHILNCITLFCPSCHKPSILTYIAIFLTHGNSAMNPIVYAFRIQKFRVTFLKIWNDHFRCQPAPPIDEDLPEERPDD

A word on the Kd: it is a measure of binding affinity in units of concentration. As a reminder, the inhibition is the relative decrease from the control value, in per cent. As for `Cn1cncc1[C@](O)(COc1ccc(C#N)cc1-c1ccc(OC(F)(F)F)cc1)c1ccc(C#N)cc1` [ABT-100], the Kd in data set [1], in data set [7], in data set [16] and in [31] was > 10 µM (not active) each time. Further, the inhibition in data set [2] was below 10%; in data set [3], 36%; in data set [5], below 10%; in data set [6] it was below 10%; in [9] it was below 10%; in data set [10], below 10%. Also, the inhibition was 18% in [11]; below 10% in data set [12]; -8.65% in data set [13]; 24% in [15]; below 10% in [17]; 30% in [18] (Compound concentration 3.0 uM). For the same compound, the inhibition was 67% in data set [18] (Compound concentration 10.0 uM); below 10% in data set [19]; 53% in data set [20]; below 10% in data set [21]; -1.19% in [22]; 21% in data set [23]. The inhibition was 21% in [24] (Compound concentration 1.0 uM); 41% in data set [24] (Compound concentration 3.0 uM); 75% in data set [24] (Compound concentration 10.0 uM); below 10% in data set [25]; 14% in [26] (Compound concentration 0.3 uM); 75% in data set [26] (Compound concentration 1.0 uM). Further, the inhibition in [26] (Compound concentration 3.0 uM) is 97%; in [26] (Compound concentration 10.0 uM) it was 100%; in data set [27], below 10%; in [28] it was 18%; in data set [29], below 10%; in [30] it was 45%. Also, the figures for the inhibition at 10 µM in data set [4], in [8] (compound concentration 10 uM) and in [14] (compound concentration 10 uM) were < 10% (not active), 58% and 60%, respectively. The inhibition at 0.3 µM in data set [8] (compound concentration 0.3 uM) is listed as 15% (not active). In addition, the inhibition at 1 µM in data set [8] (compound concentration 1 uM) and in data set [14] (compound concentration 1 uM) was 10% (not active) each time. For the same compound, the results for the inhibition at 3 µM in [8] (compound concentration 3 uM) and in [14] (compound concentration 3 uM) were 22% (not active) and 37% (not active), respectively.

With `Cn1cncc1[C@@](O)(COc1ccc(C#N)cc1-c1ccc(OC(F)(F)F)cc1)c1ccc(C#N)cc1` [A-108], the inhibition in [32] was 7.47%.
